We go through six molecules from US20120208883A1, “TREATMENT OF ONCOLOGICAL DISEASES” (priority 2008, published 2012).

Assay [1] relates to NCI-H460 non-small cell lung carcinoma. The experiment in a line: Antitumor activity of L-carnitine in combination with cisplatin against NCI-H460. The assay is classed as in vivo. Here is the method: Treatments started three days after tumor injection. To evaluate the antitumor activity, tumor diameters were measured with a Vernier caliper. […] When tumors reached a volume of 1-2 cm^3, mice were sacrificed by cervical dislocation. Body weight recording was carried out through the study and mortality was noted.

The test system of another assay is A2780 ADR cell line. The experiment in a line: Anti-tumoral activity in vivo, A2780 ADR subcutaneous tumor. As to conditions: acetyl L-carnitine 200 mg/kg po qdx5/wx3w, doxorubicin 6 mg/kg iv q7dx3. The arrangement: species or system CD1 nude mice. The protocol: (§1) Anti-tumoral activity in vivo (CD1 Nude mouse) using five different tumoral cell lines.
The tumors were generated by subcutaneous injection in the right flank of CD1 nude mice of A2780 ADR tumor cells (5×10^6/100 μl/mouse) in 0.1 ml medium Tc199.
(§2) Treatments started when tumors were palpable, 8 mice per group were used.
(§3) Acetyl L-carnitine was administered po (oral administration) at 200 mg/kg according to the schedule qdx5/w (once per day for 5 days per week).
The reference compound doxorubicin was delivered intravenously according to the schedule q7dx3, at a dose of 6 mg/kg.
(§4) Tumor volume (TV) was calculated biweekly by measuring the diameter of the tumors with a Vernier caliper according to the formula
(§5) where d and D are the shortest and longest diameters, respectively. The efficacy of the drug treatment was assessed as the tumor volume inhibition according to the formula reported underneath: […]

The test system of assay [2] is NCI-H460 NSCLC tumor cell line. The experiment in a line: Anti-proliferative activity in vitro (MTT assay), NCI-H460. The format is cell-based. The conditions noted are these: 10 mM, 72 h of treatment, 0.1% FBS. Here is the method: (§6) The anti-proliferative activity of acetyl L-carnitine was evaluated in two different NSCLC tumor cell lines (NCI-H460 and NCI-H1650) and on one ovarian tumor cell line (A2780/Dx multidrug-resistant).
(§7) Cells were seeded in 96-well tissue culture plates and treated for three days (NCI-H460 NSCLC) or six days (NCI-H1650 NSCLC and A2780/Dx cells) with acetyl L-carnitine (10 mM in 0.1% FBS). To test the effect of acetyl L-carnitine on cell growth, tumor cells were seeded in 96-well tissue culture plates at approximately 10% confluence and were allowed to attach and recover for at least 24 h. Tumor cells were exposed to treatment protocol for 72 h or 6 days in 0.1% FBS at 37° C., then medium culture (RPMI 1640) was removed and 100 μl/well of medium were added containing 25 μl/well of a solution 5 mg/ml tetrazolium salt (MTT) assay, (final 1 mg/ml). Plates were kept at 37° C. in incubator with 5% CO2 for 2 h for the formation of blue crystals. […] The cell survival was determined as optical density by a Multiskan spectrofluorimeter at 570 nm (Hansen M. B., et al., J. Immunol. Methods, 1989, 119, 203). Percentage of tumor cell inhibition in the presence of 10 mM acetyl L-carnitine was evaluated and compared with that obtained in the absence of acetyl L-carnitine applying the statistical comparison by means of the Mann-Whitney test.

The subject of assay [3] is NCI-H1650 NSCLC tumor cell line. The experiment in a line: Anti-proliferative activity in vitro (MTT assay), NCI-H1650. As to conditions: 10 mM, 6 days of treatment, 0.1% FBS. The assay is classed as cell-based. The protocol: as §6, §7
For assay [4], the system named is A2780/Dx multidrug-resistant ovarian tumor cell line. The experiment in a line: Anti-proliferative activity in vitro (MTT assay), A2780/Dx. The assay is classed as cell-based. The conditions noted are these: 10 mM, 6 days of treatment, 0.1% FBS. The protocol:
as §6, §7

Another assay deals with NCI-H460 cell line. The experiment in a line: Anti-tumoral activity in vivo, NCI-H460 subcutaneous tumor. More on the design: species or system CD1 nude mice. As to conditions: acetyl L-carnitine 200 mg/kg po qdx5/wx4w; cisplatin 4 mg/kg ip q4dx5. The protocol:
as §1
(§8) The tumors were generated by subcutaneous injection in the right flank of CD1 nude mice of NCI-H460 tumor cells (3×10^6/100 μl/mouse), in 0.1 ml medium Tc199.
as §2, §3, §4, §5

In assay [5] the test system is NCI-H460 metastatic clone. The experiment in a line: Anti-tumoral and antimetastatic activity in vivo, NCI-H460 metastatic clone. More on the design: species or system CD1 nude mice. As to conditions: for antimetastatic effect on spontaneous lung metastases: NCI-H460 metastatic clone injected subcutaneously; for % inhibition of lung metastases / TVI %: acetyl L-carnitine 200 mg/kg po qdx5/wx4w, cisplatin 5 mg/kg iv q7dx4. Here is the method:
as §1, §8, §2, §3, §4, §5

For assay [6], the system named is Human A549 NSCLC cell line. As to the kind of experiment: Anti-tumoral activity in vivo, A549 subcutaneous tumor. The arrangement: species or system CD1 nude mice. The conditions noted are these: acetyl L-carnitine 200 mg/kg po qdx5/wx4w, cisplatin 4 mg/kg ip q4dx6. Here is the method: as §1
The tumors were generated by subcutaneous injection in the right flank of CD1 nude mice of A549 tumor cells (3×10^6/100 μl/mouse) in 0.1 ml medium Tc199.
as §2, §3, §4, §5

The subject of the next assay is NCI-H1650 cell line. As to the kind of experiment: Anti-tumoral activity in vivo, NCI-H1650 subcutaneous tumor. More on the design: species or system CD1 nude mice. The conditions noted are these: acetyl L-carnitine 200 mg/kg po qdx5/wx3w; cisplatin 4 mg/kg ip q4dx6. The protocol: as §1
The tumors were generated by subcutaneous injection in the right flank of CD1 nude mice of NCI-H1650 tumor cells (5×10^6/200 μl/mouse) in suspension in 0.1 ml medium Tc199+0.1 ml Matrigel.
as §2, §3, §4, §5

Assay [7] relates to SJSA-1 (with amplification of mdm2) osteosarcoma cells. As to the kind of experiment: Antiproliferative activity on SJSA-1 osteosarcoma cells (MTT assay). The assay is classed as cell-based. Here is the method: The evaluation of antiproliferative activity was carried out by MTT assay.
The test system of the next assay is tumour mass. As to conditions: WO/2000/06134; ALC 100 mg/kg orally; cited from earlier work.

Consider `C[N+](C)(C)C[C@H](O)CC(=O)[O-]` [L-carnitine], for which, in [1] (L-carnitine 200 mg/mice/day given chronically), the “potentiation of the cytotoxic activity of cisplatin” value is on record as “not able to potentiate the cytotoxic activity of cisplatin”.

`COc1cccc2c1C(=O)c1c(O)c3c(c(O)c1C2=O)C[C@@](O)(C(=O)CO)C[C@@H]3O[C@H]1C[C@H](N)[C@H](O)[C@H](C)O1` [Doxorubicin, doxorubicin, reference compound] displayed a TVI % in the assay on A2780 ADR cell line of 60 ± 11%.

Consider `CC(=O)O[C@H](CC(=O)[O-])C[N+](C)(C)C` [Acetyl L-carnitine, acetyl L-carnitine], for which the “Tumor cell inhibition %” value in assay [2] (P <0.001) was 32%; in assay [3] (P <0.001), 41%; in assay [4] it was 29%; in [7] (10 mM, 72 h of exposure followed by 72 h of recovery, 0.1% FBS, P 0.0037 vs control), 24%. The “Absorbance ± SE at 570 nm” value in assay [2] (control 745 ± 18) is listed as 509 ± 8; in [3] (control 484 ± 25), 285 ± 11; in [4] (control 331 ± 18) it was 234 ± 16. The “TVI % ± SE” value with NCI-H460 cell line came out at 40 ± 6%. The “antimetastatic effect on spontaneous lung metastases” value in assay [5] was “statistically significant antimetastatic effect”. The “% inhibition of lung metastases” value in assay [5] is 50%. Further, the TVI % worked out at 34 ± 5% in assay [5]; 27 ± 3% in assay [6]; 27% in assay [6] (listed as acetyl L-carnitine); 19 ± 4% in the assay on NCI-H1650 cell line; 28 ± 11% in the assay with A2780 ADR cell line; 28% in the assay with A2780 ADR cell line (listed as acetyl L-carnitine). The “antiproliferative activity compared with cisplatin” value in [7] (72 h of exposure, medium containing 0.1% FBS) was “statistically significant more active than cisplatin”. Besides, the “effect on tumour growth” value in the assay with tumour mass is listed as “no effect on tumour growth”.

With `N.N.[Cl][Pt][Cl]` [Cisplatin, cisplatin, reference compound], the “TVI % ± SE” value with NCI-H460 cell line is given as 41 ± 5%. The “antimetastatic effect on spontaneous lung metastases” value in [5] is “ineffective”. Also, the “% inhibition of lung metastases” value in assay [5] was 0%. The TVI % is reported as 41 ± 5% in assay [5]; 49 ± 13% in assay [6]; 49% in assay [6] (listed as cisplatin); 23 ± 3% in the assay on NCI-H1650 cell line; 60% with A2780 ADR cell line. In addition, in [1] (day +32, cisplatin 4 mg/kg ip q4d/wx3w, L-carnitine 200 mg/kg po qdx5/wx3w), the “TVI % ± SE +32” value is listed as 80 ± 21%.

For the molecule `CC(=O)O[C@H](CC(=O)[O-])C[N+](C)(C)C` [acetyl L-carnitine (ALC)], in the assay on tumour mass, the “effect on the formation of lung metastases” value is on record as “significant inhibitory effect”.

Consider `CC(=O)O[C@H]1C(=O)[C@@]2(C)[C@H]([C@H](OC(=O)c3ccccc3)[C@]3(O)C[C@H](OC(=O)[C@H](O)[C@@H](NC(=O)c4ccccc4)c4ccccc4)C(C)=C1C3(C)C)[C@]1(OC(C)=O)CO[C@@H]1C[C@@H]2O` [Paclitaxel, paclitaxel, reference compound], for which the “inhibition of tumour growth (TVI)” value in the assay with tumour mass is 88%.
